According to patent publication US6737383B1, “Herbicidal oxadiazolidines” (priority 1999, dated 2004):

Experiments:
bedstraw = experiment: Test B pre/postemergence bedstraw; format: in vivo, Galium aparine; details: Postemergence, Rate 31 g/ha; visual rating, scale 0 to 10 (0 no effect, 10 complete control)
Summary of the method: (§1)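 Response is a visual 0-to-10 score relative to untreated plants, where 0 means no effect and 10 means complete control, taken twelve to sixteen days after application. Treatments went onto soil at planting and onto foliage of 1- to 4-leaf plants, using a surfactant-containing non-phytotoxic solvent.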

blackgrass = experiment: Test B pre/postemergence blackgrass; format: in vivo, Alopecurus myosuroides; details: for Plant response rating, Blackgrass: scale of 0 to 10 where 0 is no effect and 10 is complete control
Summary of the method: as §1

surinam grass = experiment: Test B pre/postemergence surinam grass; format: in vivo, Brachiaria decumbens; details: for Plant response rating, B. signalgrass: scale of 0 to 10 where 0 is no effect and 10 is complete control
Summary of the method: as §1

corn = experiment: Test B pre/postemergence corn; format: in vivo, Zea mays; details: for Plant response rating, Corn: scale of 0 to 10 where 0 is no effect and 10 is complete control
Summary of the method: as §1

crabgrass = experiment: Test B pre/postemergence crabgrass; format: in vivo, Digitaria sanguinalis; details: for Plant response rating, Crabgrass: scale of 0 to 10 where 0 is no effect and 10 is complete control
Summary of the method: as §1

pigweed = experiment: Test B pre/postemergence pigweed; format: in vivo, Amaranthus retroflexus; details: for Plant response rating, Redroot pigweed: scale of 0 to 10 where 0 is no effect and 10 is complete control
Summary of the method: as §1

rape = experiment: Test B pre/postemergence rape; format: in vivo, Brassica napus; details: for Plant response rating, Rape: scale of 0 to 10 where 0 is no effect and 10 is complete control
Summary of the method: as §1

soybean = experiment: Test B pre/postemergence soybean; format: in vivo, Glycine max; details: for Plant response rating, Soybean: scale of 0 to 10 where 0 is no effect and 10 is complete control
Summary of the method: as §1

sugar beet = experiment: Test B pre/postemergence sugar beet; format: in vivo, Beta vulgaris; details: for Plant response rating, Sugarbeets: scale of 0 to 10 where 0 is no effect and 10 is complete control
Summary of the method: as §1

velvetleaf = experiment: Test B pre/postemergence velvetleaf; format: in vivo, Abutilon theophrasti; details: for Plant response rating, Velvetleaf: scale of 0 to 10 where 0 is no effect and 10 is complete control
Summary of the method: as §1

wheat = experiment: Test B pre/postemergence wheat; format: in vivo, Triticum aestivum; details: for Plant response rating, Wheat: scale of 0 to 10 where 0 is no effect and 10 is complete control
Summary of the method: as §1

wild oat = experiment: Test B pre/postemergence wild oat; format: in vivo, Avena fatua; details: for Plant response rating, Wild oats: scale of 0 to 10 where 0 is no effect and 10 is complete control
Summary of the method: as §1

purple nutsedge = experiment: Test B pre/postemergence purple nutsedge; format: in vivo, Cyperus rotundus; details: for Plant response rating, Nutsedge: scale of 0 to 10 where 0 is no effect and 10 is complete control
Summary of the method: as §1

rice = experiment: Test B flood test rice; format: in vivo, Oryza sativa
Summary of the method: (§2)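 Plants were grown to the 2-leaf stage before treatment with test chemical, then held in a greenhouse for twelve to sixteen days. Injury was visually rated against untreated controls on a 0–10 scale, where 0 is no effect and 10 is complete control.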

smallflower flatsedge = experiment: Test B flood test smallflower flatsedge; format: in vivo, Cyperus difformis
Summary of the method: as §2

duck salad = experiment: Test B flood test duck salad; format: in vivo, Heteranthera limosa
Summary of the method: as §2

[1] = Postemergence, Rate 31 g/ha, visual rating, scale 0 to 10 (0 no effect, 10 complete control)
[2] = Postemergence, Rate 250 g/ha, scale 0 to 10
[3] = Preemergence, Rate 31 g/ha, visual rating, scale 0 to 10 (0 no effect, 10 complete control)
[4] = Preemergence, Rate 250 g/ha, scale 0 to 10, 0 is no effect, 10 is complete control
[5] = Rate 62 g/ha, Postemergence, scale 0 to 10 (0 no effect, 10 complete control)
[6] = Rate 125 g/ha, Postemergence, scale 0 to 10, 0 is no effect, 10 is complete control
[7] = Rate 31 g/ha, Pre-emergence section (flood test species), scale 0 to 10
[8] = Rate 62 g/ha, flood test species, Pre-emergence, visual evaluation after twelve to sixteen days
[9] = Rate 125 g/ha, under heading Pre-emergence, flood test species, visual evaluation after twelve to sixteen days
[10] = Rate 250 g/ha, Pre-emergence (flood test species), scale 0 to 10, 0 is no effect, 10 is complete control

CC(C)N(C(=O)n1oc(=O)n(CC2=NOCCC2)c1=O)c1ccc(Cl)cc1 [Compound 450]
Bedstraw plant response rating (bedstraw): 0
Blackgrass plant response rating (blackgrass; [1]): 0
Blackgrass plant response rating (blackgrass; [2]): 2
Blackgrass plant response rating (blackgrass; [3]): 0
Plant response rating, Blackgrass (blackgrass; Preemergence, Rate 62 g/ha): 0
Plant response rating, Blackgrass (blackgrass; Preemergence, Rate 125 g/ha): 2
Blackgrass plant response rating (blackgrass; [4]): 4
Blackgrass plant response rating (blackgrass; [5]): 0
Blackgrass plant response rating (blackgrass; [6]): 0
B. signalgrass plant response rating (surinam grass; [1]): 0
B. signalgrass plant response rating (surinam grass; Postemergence, Rate 250 g/ha, scale 0 to 10, 0 no effect, 10 complete control): 0
B. signalgrass plant response rating (surinam grass; [3]): 0
Plant response rating, B. signalgrass (surinam grass; Preemergence, Rate 62 g/ha): 0
Plant response rating, B. signalgrass (surinam grass; Preemergence, Rate 125 g/ha): 1
B. signalgrass plant response rating (surinam grass; [4]): 3
B. signalgrass plant response rating (surinam grass; [5]): 0
B. signalgrass plant response rating (surinam grass; [6]): 0
Corn plant response rating (corn; [1]): 0
Corn plant response rating (corn; [2]): 0
Corn plant response rating (corn; [3]): 0
Plant response rating, Corn (corn; Preemergence, Rate 62 g/ha): 0
Plant response rating, Corn (corn; Preemergence, Rate 125 g/ha): 0
Corn plant response rating (corn; [4]): 0
Corn plant response rating (corn; [5]): 0
Corn plant response rating (corn; [6]): 0
Crabgrass plant response rating (crabgrass; [1]): 0
Crabgrass plant response rating (crabgrass; [2]): 4
Crabgrass plant response rating (crabgrass; [3]): 0
Plant response rating, Crabgrass (crabgrass; Preemergence, Rate 62 g/ha): 2
Plant response rating, Crabgrass (crabgrass; Preemergence, Rate 125 g/ha): 7
Crabgrass plant response rating (crabgrass; [4]): 8
Crabgrass plant response rating (crabgrass; [5]): 0
Crabgrass plant response rating (crabgrass; [6]): 2
Redroot pigweed plant response rating (pigweed; [1]): 0
Redroot pigweed plant response rating (pigweed; [2]): 0
Plant response rating, Redroot pigweed (pigweed; Preemergence, Rate 62 g/ha): 0
Plant response rating, Redroot pigweed (pigweed; Preemergence, Rate 125 g/ha): 4
Redroot pigweed plant response rating (pigweed; [4]): 7
Redroot pigweed plant response rating (pigweed; [5]): 0
Redroot pigweed plant response rating (pigweed; [6]): 0
Rape plant response rating (rape; [1]): 0
Rape plant response rating (rape; [2]): 0
Plant response rating, Rape (rape; Preemergence, Rate 62 g/ha): 0
Plant response rating, Rape (rape; Preemergence, Rate 125 g/ha): 0
Rape plant response rating (rape; [4]): 0
Rape plant response rating (rape; [5]): 0
Rape plant response rating (rape; [6]): 0
Soybean plant response rating (soybean; [1]): 0
Soybean plant response rating (soybean; [2]): 1
Plant response rating, Soybean (soybean; Preemergence, Rate 62 g/ha): 0
Plant response rating, Soybean (soybean; Preemergence, Rate 125 g/ha): 0
Soybean plant response rating (soybean; [4]): 3
Soybean plant response rating (soybean; [5]): 1
Soybean plant response rating (soybean; [6]): 1
Sugarbeets plant response rating (sugar beet; [1]): 0
Sugarbeets plant response rating (sugar beet; [2]): 0
Plant response rating, Sugarbeets (sugar beet; Preemergence, Rate 62 g/ha): 0
Plant response rating, Sugarbeets (sugar beet; Preemergence, Rate 125 g/ha): 0
Sugarbeets plant response rating (sugar beet; [4]): 0
Sugarbeets plant response rating (sugar beet; [5]): 0
Sugarbeets plant response rating (sugar beet; [6]): 0
Velvetleaf plant response rating (velvetleaf; [1]): 0
Velvetleaf plant response rating (velvetleaf; [2]): 2
Plant response rating, Velvetleaf (velvetleaf; Preemergence, Rate 62 g/ha): 0
Plant response rating, Velvetleaf (velvetleaf; Preemergence, Rate 125 g/ha): 0
Velvetleaf plant response rating (velvetleaf; [4]): 0
Velvetleaf plant response rating (velvetleaf; [5]): 0
Velvetleaf plant response rating (velvetleaf; [6]): Velvetleaf 0
Wheat plant response rating (wheat; [1]): 0
Wheat plant response rating (wheat; [2]): 0
Plant response rating, Wheat (wheat; Preemergence, Rate 62 g/ha): 0
Plant response rating, Wheat (wheat; Preemergence, Rate 125 g/ha): 0
Wheat plant response rating (wheat; [4]): 0
Wheat plant response rating (wheat; [5]): 0
Wheat plant response rating (wheat; [6]): 0
Wild oats plant response rating (wild oat; [1]): 0
Wild oats plant response rating (wild oat; [2]): 0
Plant response rating, Wild oats (wild oat; Preemergence, Rate 62 g/ha): 0
Plant response rating, Wild oats (wild oat; Preemergence, Rate 125 g/ha): 0
Wild oats plant response rating (wild oat; [4]): 0
Wild oats plant response rating (wild oat; [5]): 0
Wild oats plant response rating (wild oat; [6]): 0
Nutsedge plant response rating (purple nutsedge; [1]): 0
Nutsedge plant response rating (purple nutsedge; [2]): 0
Plant response rating, Nutsedge (purple nutsedge; Preemergence, Rate 62 g/ha): 0
Plant response rating, Nutsedge (purple nutsedge; Preemergence, Rate 125 g/ha): 0
Nutsedge plant response rating (purple nutsedge; [4]): 0
Nutsedge plant response rating (purple nutsedge; [5]): 0
Nutsedge plant response rating (purple nutsedge; [6]): 0
Rice plant response rating (rice; [7]): 0
Plant response rating, Rice (0 to 10 scale, 0 is no effect, 10 is complete control) (rice; [8]): 0
Rice plant response rating (0 to 10 scale, 0 is no effect, 10 is complete control) (rice; [9]): 0
Rice plant response rating (rice; [10]): 0
S. Flatsedge plant response rating (smallflower flatsedge; [7]): 0
Plant response rating, S. Flatsedge (0 to 10 scale, 0 is no effect, 10 is complete control) (smallflower flatsedge; [8]): 0
S. Flatsedge plant response rating (0 to 10 scale, 0 is no effect, 10 is complete control) (smallflower flatsedge; [9]): 0
S. Flatsedge plant response rating (smallflower flatsedge; [10]): 0
Ducksalad plant response rating (duck salad; [7]): 0
Plant response rating, Ducksalad (0 to 10 scale, 0 is no effect, 10 is complete control) (duck salad; [8]): 0
Ducksalad plant response rating (0 to 10 scale, 0 is no effect, 10 is complete control) (duck salad; [9]): 0
Ducksalad plant response rating (duck salad; [10]): 0
